Where two headings read alike, the source gives them in different places.

Format in all cases: cell-based
Assay [1] has as its target protein kinases (human kinome) (Homo sapiens, UniProt Q8N5S9). Particulars: experiment wp117.
The target of assay [2] is protein kinases (human kinome) (Homo sapiens, UniProt P48736).
Assay [3] has as its target protein kinases (human kinome) (Homo sapiens, UniProt P54753).
The target of assay [4] is T1, protein kinases (human kinome) (Homo sapiens, UniProt O43318).
T1 sequence (O43318 1-606): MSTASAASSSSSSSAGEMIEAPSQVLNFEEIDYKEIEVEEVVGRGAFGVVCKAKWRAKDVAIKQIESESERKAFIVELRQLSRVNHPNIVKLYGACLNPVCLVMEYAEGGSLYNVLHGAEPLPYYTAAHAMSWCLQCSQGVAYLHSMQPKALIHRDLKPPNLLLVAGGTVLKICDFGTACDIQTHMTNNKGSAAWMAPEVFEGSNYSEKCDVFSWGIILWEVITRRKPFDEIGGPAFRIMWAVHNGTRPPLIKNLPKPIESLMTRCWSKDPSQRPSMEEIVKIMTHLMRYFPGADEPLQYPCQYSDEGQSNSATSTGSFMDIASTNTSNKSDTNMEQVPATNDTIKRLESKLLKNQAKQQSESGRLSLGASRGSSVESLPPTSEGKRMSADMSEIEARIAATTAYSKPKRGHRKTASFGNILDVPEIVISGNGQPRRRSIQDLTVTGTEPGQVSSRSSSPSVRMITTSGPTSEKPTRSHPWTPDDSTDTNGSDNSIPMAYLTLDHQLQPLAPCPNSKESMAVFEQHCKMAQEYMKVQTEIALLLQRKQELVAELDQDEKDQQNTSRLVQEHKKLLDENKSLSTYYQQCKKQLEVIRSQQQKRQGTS
The settings on record: MAP3K7 (O43318).

Assay [5] concerns the target protein kinases (human kinome) (Homo sapiens, UniProt P41743). Particulars: experiment wp056.
Assay [6] concerns the target T2, protein kinases (human kinome) (Homo sapiens, UniProt Q13043).
T2 sequence (Q13043 1-487): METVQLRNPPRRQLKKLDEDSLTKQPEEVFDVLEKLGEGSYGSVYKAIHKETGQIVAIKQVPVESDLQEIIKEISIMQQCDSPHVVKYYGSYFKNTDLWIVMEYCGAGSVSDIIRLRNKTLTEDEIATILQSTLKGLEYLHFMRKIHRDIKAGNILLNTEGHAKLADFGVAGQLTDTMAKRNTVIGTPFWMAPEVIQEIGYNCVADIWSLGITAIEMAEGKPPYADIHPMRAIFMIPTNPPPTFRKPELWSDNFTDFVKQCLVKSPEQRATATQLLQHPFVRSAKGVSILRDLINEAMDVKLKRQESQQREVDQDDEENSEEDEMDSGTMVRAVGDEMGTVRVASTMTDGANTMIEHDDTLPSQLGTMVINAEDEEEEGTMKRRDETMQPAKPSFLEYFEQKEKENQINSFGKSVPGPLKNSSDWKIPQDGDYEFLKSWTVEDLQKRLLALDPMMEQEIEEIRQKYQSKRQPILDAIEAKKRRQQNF
The settings on record: for logFC: STK4 (Q13043-1).

The target of assay [7] is protein kinases (human kinome) (Homo sapiens, UniProt Q13131). Particulars: for logFC PRKAA1 (Q13131): direction down.
Sequence of protein kinases (human kinome) (Homo sapiens, UniProt Q13131) (Q13131 whole entry): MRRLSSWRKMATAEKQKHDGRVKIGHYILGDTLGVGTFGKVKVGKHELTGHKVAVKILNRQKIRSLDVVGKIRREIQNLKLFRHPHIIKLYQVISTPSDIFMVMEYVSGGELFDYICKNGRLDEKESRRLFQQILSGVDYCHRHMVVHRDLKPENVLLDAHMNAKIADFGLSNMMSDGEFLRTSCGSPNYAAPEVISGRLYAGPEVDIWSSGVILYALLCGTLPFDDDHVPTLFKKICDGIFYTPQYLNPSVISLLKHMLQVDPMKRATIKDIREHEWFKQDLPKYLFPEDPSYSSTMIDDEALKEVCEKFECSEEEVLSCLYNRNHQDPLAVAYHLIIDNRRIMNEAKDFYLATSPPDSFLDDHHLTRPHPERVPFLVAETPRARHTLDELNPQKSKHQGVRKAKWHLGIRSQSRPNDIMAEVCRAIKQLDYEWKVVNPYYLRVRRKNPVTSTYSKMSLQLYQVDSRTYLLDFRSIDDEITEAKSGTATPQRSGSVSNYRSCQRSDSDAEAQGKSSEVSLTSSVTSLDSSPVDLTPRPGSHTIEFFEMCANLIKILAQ
For assay [8], the target named is protein kinases (human kinome) (Homo sapiens, UniProt Q9P2K8). The settings on record: experiment wp080.
Sequence of protein kinases (human kinome) (Homo sapiens, UniProt Q9P2K8) (Q9P2K8 whole entry): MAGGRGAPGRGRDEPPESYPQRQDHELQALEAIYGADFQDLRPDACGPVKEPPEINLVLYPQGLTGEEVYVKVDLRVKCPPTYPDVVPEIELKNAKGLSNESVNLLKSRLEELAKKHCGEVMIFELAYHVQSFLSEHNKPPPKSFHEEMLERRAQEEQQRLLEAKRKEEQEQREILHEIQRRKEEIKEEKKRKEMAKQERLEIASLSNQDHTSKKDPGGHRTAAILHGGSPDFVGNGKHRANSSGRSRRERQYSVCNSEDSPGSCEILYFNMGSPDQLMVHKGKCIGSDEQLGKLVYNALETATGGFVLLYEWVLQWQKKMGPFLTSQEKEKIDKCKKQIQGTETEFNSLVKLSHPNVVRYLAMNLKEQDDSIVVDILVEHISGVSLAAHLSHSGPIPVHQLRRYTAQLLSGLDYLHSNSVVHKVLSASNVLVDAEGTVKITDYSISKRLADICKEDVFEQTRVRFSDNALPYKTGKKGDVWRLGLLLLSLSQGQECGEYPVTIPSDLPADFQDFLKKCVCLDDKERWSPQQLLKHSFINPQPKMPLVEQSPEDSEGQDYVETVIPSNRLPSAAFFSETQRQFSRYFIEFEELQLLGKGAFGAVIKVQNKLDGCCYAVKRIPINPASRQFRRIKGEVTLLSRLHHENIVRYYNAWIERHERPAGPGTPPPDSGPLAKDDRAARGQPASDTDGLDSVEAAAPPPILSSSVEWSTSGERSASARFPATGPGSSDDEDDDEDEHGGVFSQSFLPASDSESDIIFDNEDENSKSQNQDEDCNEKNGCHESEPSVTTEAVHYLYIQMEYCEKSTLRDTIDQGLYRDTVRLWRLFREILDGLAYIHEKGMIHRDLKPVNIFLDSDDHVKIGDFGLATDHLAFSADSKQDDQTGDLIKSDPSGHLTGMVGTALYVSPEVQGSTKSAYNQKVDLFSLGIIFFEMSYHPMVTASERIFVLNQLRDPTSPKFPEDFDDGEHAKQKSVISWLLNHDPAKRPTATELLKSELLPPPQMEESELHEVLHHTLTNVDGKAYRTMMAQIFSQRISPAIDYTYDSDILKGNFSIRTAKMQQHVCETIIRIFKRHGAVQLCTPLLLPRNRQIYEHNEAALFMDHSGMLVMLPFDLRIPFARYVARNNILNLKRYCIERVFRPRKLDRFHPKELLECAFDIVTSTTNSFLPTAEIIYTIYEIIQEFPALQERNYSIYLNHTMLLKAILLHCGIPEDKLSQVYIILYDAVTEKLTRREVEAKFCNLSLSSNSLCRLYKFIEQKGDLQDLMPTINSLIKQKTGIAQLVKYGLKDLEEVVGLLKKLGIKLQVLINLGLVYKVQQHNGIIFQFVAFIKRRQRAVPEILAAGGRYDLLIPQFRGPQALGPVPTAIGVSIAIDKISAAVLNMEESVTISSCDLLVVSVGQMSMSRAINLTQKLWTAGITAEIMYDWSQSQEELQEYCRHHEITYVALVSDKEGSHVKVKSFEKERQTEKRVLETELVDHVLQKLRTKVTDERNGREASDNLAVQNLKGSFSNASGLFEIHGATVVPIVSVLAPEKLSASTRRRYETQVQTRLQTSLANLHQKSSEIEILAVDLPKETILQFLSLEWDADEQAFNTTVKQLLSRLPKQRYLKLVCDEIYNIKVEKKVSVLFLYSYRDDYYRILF
In assay [9] the target is protein kinases (human kinome) (Homo sapiens, UniProt Q8IW41). The settings on record: experiment wp080.
Sequence of protein kinases (human kinome) (Homo sapiens, UniProt Q8IW41) (Q8IW41 whole entry): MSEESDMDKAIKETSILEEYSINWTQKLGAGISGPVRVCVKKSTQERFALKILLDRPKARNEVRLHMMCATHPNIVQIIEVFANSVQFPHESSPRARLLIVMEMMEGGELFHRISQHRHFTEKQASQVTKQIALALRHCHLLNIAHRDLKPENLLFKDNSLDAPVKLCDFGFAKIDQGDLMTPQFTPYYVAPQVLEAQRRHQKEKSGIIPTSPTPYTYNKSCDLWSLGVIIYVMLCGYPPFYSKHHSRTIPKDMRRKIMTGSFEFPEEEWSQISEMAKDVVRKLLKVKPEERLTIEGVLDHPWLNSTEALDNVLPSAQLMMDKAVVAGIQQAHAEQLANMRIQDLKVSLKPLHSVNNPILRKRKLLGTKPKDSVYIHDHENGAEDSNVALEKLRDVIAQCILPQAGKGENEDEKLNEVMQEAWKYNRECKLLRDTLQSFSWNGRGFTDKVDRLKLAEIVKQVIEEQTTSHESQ
Assay [10] addresses protein kinases (human kinome) (Homo sapiens, UniProt Q99640). The settings on record: experiment wp131.

Sequence of protein kinases (human kinome) (Homo sapiens, UniProt P54753) (P54753 34-998): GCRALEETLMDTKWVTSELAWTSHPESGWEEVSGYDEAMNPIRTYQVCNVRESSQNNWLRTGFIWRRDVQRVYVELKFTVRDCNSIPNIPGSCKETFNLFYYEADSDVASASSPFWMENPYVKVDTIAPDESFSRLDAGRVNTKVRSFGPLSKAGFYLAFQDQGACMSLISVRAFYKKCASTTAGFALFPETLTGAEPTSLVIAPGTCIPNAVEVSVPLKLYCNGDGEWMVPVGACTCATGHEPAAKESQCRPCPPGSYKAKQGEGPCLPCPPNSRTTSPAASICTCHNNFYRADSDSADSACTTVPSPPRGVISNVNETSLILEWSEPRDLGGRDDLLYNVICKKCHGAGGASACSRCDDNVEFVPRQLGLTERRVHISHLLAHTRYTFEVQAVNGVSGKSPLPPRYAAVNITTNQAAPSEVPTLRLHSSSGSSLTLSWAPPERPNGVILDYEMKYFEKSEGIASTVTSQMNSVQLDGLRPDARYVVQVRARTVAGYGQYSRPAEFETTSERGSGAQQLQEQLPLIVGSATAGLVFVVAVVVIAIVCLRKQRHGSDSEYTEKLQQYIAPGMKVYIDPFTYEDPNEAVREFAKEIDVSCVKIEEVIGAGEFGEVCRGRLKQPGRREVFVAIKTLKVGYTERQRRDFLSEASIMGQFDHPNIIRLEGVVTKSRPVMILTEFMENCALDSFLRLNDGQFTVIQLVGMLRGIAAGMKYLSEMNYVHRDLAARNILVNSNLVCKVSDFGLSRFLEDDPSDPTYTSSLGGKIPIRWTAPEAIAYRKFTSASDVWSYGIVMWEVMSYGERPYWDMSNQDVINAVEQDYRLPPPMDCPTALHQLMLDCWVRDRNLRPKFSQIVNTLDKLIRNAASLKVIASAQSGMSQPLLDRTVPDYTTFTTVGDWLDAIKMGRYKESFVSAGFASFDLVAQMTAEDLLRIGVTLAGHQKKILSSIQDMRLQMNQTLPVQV
Sequence of protein kinases (human kinome) (Homo sapiens, UniProt Q8N5S9) (Q8N5S9 whole entry): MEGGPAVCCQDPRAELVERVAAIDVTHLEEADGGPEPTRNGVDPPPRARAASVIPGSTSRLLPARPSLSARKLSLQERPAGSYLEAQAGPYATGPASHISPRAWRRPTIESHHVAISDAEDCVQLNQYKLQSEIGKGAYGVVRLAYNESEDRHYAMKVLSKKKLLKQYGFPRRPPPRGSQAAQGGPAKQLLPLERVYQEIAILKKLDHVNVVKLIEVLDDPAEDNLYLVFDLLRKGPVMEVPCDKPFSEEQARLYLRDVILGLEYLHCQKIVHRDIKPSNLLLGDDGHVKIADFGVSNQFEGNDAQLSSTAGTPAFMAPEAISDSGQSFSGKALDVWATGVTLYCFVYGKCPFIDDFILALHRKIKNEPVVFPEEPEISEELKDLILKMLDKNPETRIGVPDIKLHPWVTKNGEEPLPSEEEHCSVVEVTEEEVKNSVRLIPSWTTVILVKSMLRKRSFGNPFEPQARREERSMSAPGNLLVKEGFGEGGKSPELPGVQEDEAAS
Sequence of protein kinases (human kinome) (Homo sapiens, UniProt P41743) (P41743 whole entry): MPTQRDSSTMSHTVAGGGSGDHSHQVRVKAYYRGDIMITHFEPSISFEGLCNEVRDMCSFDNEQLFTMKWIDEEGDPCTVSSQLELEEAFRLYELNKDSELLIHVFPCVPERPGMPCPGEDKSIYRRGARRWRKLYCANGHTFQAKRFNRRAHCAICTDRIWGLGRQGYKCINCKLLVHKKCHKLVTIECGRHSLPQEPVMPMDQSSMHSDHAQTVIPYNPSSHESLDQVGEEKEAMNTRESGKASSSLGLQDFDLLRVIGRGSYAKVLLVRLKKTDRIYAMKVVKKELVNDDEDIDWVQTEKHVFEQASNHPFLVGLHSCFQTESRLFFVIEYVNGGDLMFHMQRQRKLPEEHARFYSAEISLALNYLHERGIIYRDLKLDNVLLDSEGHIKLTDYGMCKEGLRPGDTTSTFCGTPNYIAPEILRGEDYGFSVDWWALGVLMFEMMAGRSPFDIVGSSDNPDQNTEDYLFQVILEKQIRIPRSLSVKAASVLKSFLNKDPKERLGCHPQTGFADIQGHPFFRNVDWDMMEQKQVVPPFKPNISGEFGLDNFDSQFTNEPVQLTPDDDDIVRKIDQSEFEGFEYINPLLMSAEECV

The compound `CS(=O)(=O)Nc1cccc(-c2csc3cnc(Nc4ccc(N5CCN(CCCCCOc6cccc7c6C(=O)N(C6CCC(=O)NC6=O)C7=O)CC5)cc4)nc23)c1` (centres unmarked) [DB0614, N-(3-(2-((4-(4-(5-((2-(2,6-Dioxopiperidin-3-yl)-1,3-dioxoisoindolin-4-yl)oxy)pentyl)piperazin-1-yl)phenyl)amino)thieno[3,2-d]pyrimidin-7-yl)phenyl)methanesulfonamide] gave a logFC in assay [1] (CAMKK1 (Q8N5S9)) of −0.471. Further, the “logFC CAMKK1 (Q8N5S9)” value in assay [1] (direction of change down) is reported as −0.471.

Consider `O=C1CCC(N2C(=O)c3cccc(NCCCCCCCCN4CCC(NC(=O)c5[nH]ncc5NC(=O)c5c(Cl)cccc5Cl)CC4)c3C2=O)C(=O)N1` (centres unmarked) [MFH.5.126.1], for which the “logFC PIK3CG (P48736)” value in assay [2] (Experiment wp076, direction of change down) was −0.3735. This compound also had a logFC in assay [2] (PIK3CG (P48736), experiment wp076) of −0.3735.

As to `Cc1ccc(NC(=O)c2cccc(C(F)(F)F)c2)cc1N1Cc2cnc(Nc3ccc(N4CCN(Cc5cn(CCCCCOc6cccc7c6C(=O)N(C6CCC(=O)NC6=O)C7=O)nn5)CC4)nc3)nc2N(C)C1=O` (centres unmarked) [DB0646, N-(3-(7-((6-(4-((1-(5-((2-(2,6-Dioxopiperidin-3-yl)-1,3-dioxoisoindolin-4-yl)oxy)pentyl)-1H-1,2,3-triazol-4-yl)methyl)piperazin-1-v)pyridin-3-yl)amino)-1-methyl-2-oxo-1,4-dihydropyrimido[4,5-d]pyrimidin-3(2H)-yl)-4-methylphenyl)-3-(trifluoromethyl)benzamide], the “logFC EPHB3 (P54753)” value in assay [3] (Experiment wp114, direction of change down) is on record as −0.4175. In addition, in assay [3] (protein EPHB3 (P54753), experiment wp114, down), the “logFC EPHB3” value is on record as −0.4175.

For the compound `Cc1ccc(C(=O)Nc2ccc(CN3CCN(CCCOCCOCCOCCNC(=O)COc4cccc5c4C(=O)N(C4CCC(=O)NC4=O)C5=O)CC3)c(C(F)(F)F)c2)cc1C#Cc1cnc2cccnn12` (centres unmarked) [SB1.G.187], the logFC was −1.003 in [4] (experiment wp056); −1.003 in [4] (experiment wp056, direction down); −1.374 in [4] (experiment wp103); −1.374 in [4] (experiment wp103, direction down); −1.031 in assay [4] (experiment wp105); −1.031 in assay [4] (experiment wp105, direction down). For the same compound, the logFC in assay [4] (experiment wp107) is given as −1.33; in [4] (experiment wp107, direction down), −1.33; in [4] (experiment wp172), −0.5772; in assay [4] (experiment wp172, direction down) it was −0.5772.

In the case of `C=CCn1c(=O)c2cnc(Nc3ccc(N4CCN(CCCNc5cccc6c5C(=O)N(C5CCC(=O)NC5=O)C6=O)CC4)cc3)nc2n1-c1cccc(C(C)(C)O)n1` (centres unmarked) [ZNL.02.096], the “logFC PRKCI (P41743)” value in [5] (direction of change down) is −0.5365. In addition, the “logFC PRKCI” value in assay [5] (protein PRKCI (P41743), down) is recorded as −0.5365.

Turning to `Nc1ncc(-c2ccc(S(=O)(=O)N(CCCNC(=O)CCOCCOCCOCCOCCOCCNc3cccc4c3C(=O)N(C3CCC(=O)NC3=O)C4=O)C3CC3)cc2)cc1-c1ccc2c(c1)CCNC2=O` (centres unmarked) [WH.10417.099], the “logFC of STK4 (Q13043-1)” value in assay [6] (Experiment wp103) is given as −0.7387; in assay [6] (Experiment wp107), −0.7188; in assay [6] (Experiment wp172) it was −0.5983; in assay [6] (experiment wp056), −0.7157. The logFC in assay [6] (experiment wp056) is −0.7157; in assay [6] (experiment wp103), −0.7387; in assay [6] (experiment wp107), −0.7188; in assay [6] (experiment wp172), −0.5983.

For the compound `CC(C)S(=O)(=O)c1ccccc1Nc1nc(Nc2ccc(N3CCN(CCOCCNC(=O)CNc4cccc5c4C(=O)N(C4CCC(=O)NC4=O)C5=O)CC3)cc2)ncc1Cl` (centres unmarked) [SK.3.91], the “logFC of PRKAA1 (Q13131)” value was −0.3284 in [7] (Experiment wp160, 2 hr); −0.4542 in assay [7] (Experiment wp172); −0.6117 in assay [7] (experiment wp160, 4 hr). The “logFC PRKAA1 (Q13131)” value in [7] (Experiment wp160, 2 hr) is reported as −0.3284; in assay [7] (Experiment wp160, 4 hr) it was −0.6117; in assay [7] (Experiment wp172), −0.4542.

On to `Cc1ncsc1-c1ccc([C@H](C)NC(=O)[C@@H]2C[C@@H](O)CN2C(=O)[C@@H](NC(=O)CCCCCN2CCN(c3ccc(Nc4ncc5scc(-c6cccc(NS(C)(=O)=O)c6)c5n4)cc3)CC2)C(C)(C)C)cc1` [RSS0680, (2S,4R)-1-((S)-3,3-Dimethyl-2-(6-(4-(4-((7-(3-(methylsulfonamido)phenyl)thieno[3,2-d]pyrimidin-2-yl)amino)phenyl)piperazin-1-yl)hexanamido)butanoyl)-4-hydroxy-N—((S)-1-(4-(4-methylthiazol-5yl)phenyl)ethyl)pyrrolidine-2-carboxamide], for which the “logFC EIF2AK4 (Q9P2K8-1)” value in [8] (direction of change down) is listed as −0.3311. For the same compound, the “logFC EIF2AK4” value in assay [8] (protein EIF2AK4 (Q9P2K8-1), down) is recorded as −0.3311. Besides, the “logFC MAPKAPK5 (Q8IW41)” value in assay [9] (direction of change down) was −0.3355. Moreover, in assay [9] (protein MAPKAPK5 (Q8IW41), down), the “logFC MAPKAPK5” value is listed as −0.3355.

With `Cn1c(=O)c(-c2c(Cl)cccc2Cl)cc2cnc(Nc3ccc(OCCNC(=O)CCCCCCNC(=O)COc4cccc5c4C(=O)N(C4CCC(=O)NC4=O)C5=O)cc3)nc21` (centres unmarked) [SB1.G.192.1], the “logFC PKMYT1 (Q99640)” value in [10] (direction of change down) is −0.7301. In [10] (protein PKMYT1 (Q99640), down), the “logFC PKMYT1” value is on record as −0.7301.

For the origin of these results see US20240269139A1, “COMPOUNDS FOR TARGETED PROTEIN DEGRADATION OF KINASES” (DANA-FARBER CANCER INSTITUTE, INC., priority 2020, published 2024).
